This note sets out measurements from patent US12060432B2, “Combination therapies with anti-CD38 antibodies” (Janssen Biotech, Inc., priority 2014, dated 2024).

Test [1] relates to ST1361 NHL-DLBCL (diffuse large B-cell lymphoma) PDX (patient derived xenograft) model. In words: Patient-derived DLBCL xenograft ST1361: daratumumab alone or with CHOP or R-CHOP. The class given is in vivo, SCID/Beige mice. The settings on record: for % TGI (percent tumor growth inhibition): up to day 31, versus isotype control. The procedure:
Resected DLBCL tumors were implanted in SCID/Beige mice. […] Daratumumab was administered at 20 mg/kg once a week for three weeks. CHOP and R-CHOP were administered once on day 0 except prednisone was administered on days 0-4 using the following regimens: CHOP: (cyclophosphoamide (CTX): 30 mg/kg i.v.; doxorubicin: 2.5 mg/kg i.v; vincristine: 0.4 mg/kg i.v); prednisone: 0.15 mg/kg p.o; R-CHOP: rituximab 20 mg/kg i.p. DAY 0. Tumor volume was measured every three days. The Y-axis represents tumor volume±SEM.
ST1361 is a NHL-DLBCL (diffuse large B-cell lymphoma) PDX (patient derived xenograft) model originating from a person chemo-naïve prior to metastatic sample collection.
Tumors were implanted in immunocompromised mice between 5-8 weeks of age. […] Daratumumab was dosed at 20 mg/kg once a week for 3 weeks. CHOP and R-CHOP at the concentrations described below were dosed once on day 0. CHOP (cyclophosphoamide: 30 mg/kg; doxorubicin: 2.5 mg/kg; vincristine: 0.4 mg/kg)-IV DAY 0; prednisone: 0.15 mg/kg DAYS 0-4; R-CHOP: rituximab 20 mg/kg-IP DAY 0. Beginning Day 0, tumor volume was measured twice weekly by digital caliper and data including individual and mean estimated tumor volumes (Mean TV±SEM) recorded for each group. The study was used to measure tumor growth inhibition until the control group was terminated and then continued as a survival study to evaluate the duration of daratumumab efficacy.
For the study, beginning Day 0, tumor dimensions were measured twice weekly by digital caliper and data including individual and mean estimated tumor volumes (mean TV±SEM) recorded for each group.
In general terms: Xenograft models place foreign cells or tissue in a host animal.

In the next test the test system is SU-DHL-6 cells. In words: SU-DHL-6 cell line based NHL-DLBCL model: daratumumab alone or with CHOP. The class given is in vivo, NOD SCID mice. On the procedure: 5×10^6 SU-DHL-6 cells were implanted into NOD SCID mice and treatment initiated when the main tumor size reached approximately 154 mm^3. Daratumumab was administered at 10 mg/kg once a week for four weeks. CHOP was administered daily on days 0-5 using following doses: cyclophosphoamide (CTX): 5 mg/kg i.v.; doxorubicin: 0.5 mg/kg i.v; vincristine: 0.08 mg/kg i.v., prednisone: 0.03 mg/kg p.o. Tumor size was plotted as Mean±SEM.
SU-DHL-6 cell line based NHL-DLBCL model was utilized to study the efficacy of daratumumab alone or in combination with CHOP.
The SU-DHL-6 cells were maintained separately in vitro in RPMI1640 medium supplemented with 20% fetal bovine serum (v/v) at 37° C. in an atmosphere of 5% CO2 in air. The cells were routinely subcultured twice weekly. The cells growing in an exponential growth phase were harvested and counted for tumor inoculation. NOD SCID mice were γ-irradiated (200 rads) at 24 h before injection. Each mouse was inoculated subcutaneously at the right flank with SU-DHL-6 tumor cells (5×10^6) in 0.1 ml of PBS with matrigel (1:1) for tumor development. The treatments were started when the tumor size reaches approximately 154 mm^3. The date of tumor cell inoculation is denoted as day 0. Tumor sizes were measured twice weekly and % TGI values calculated as described in Example 1.
Animals were divided in four treatment groups and were administered vehicle, daratumumab, CHOP or daratumumab in combination with CHOP at dosages as described in Table 3.

The subject of another test is NAMALWA cells. In words: NAMALWA model of Burkitt's lymphoma: daratumumab alone or with CHOP. Type of test: in vivo, NOD SCID mice. The procedure: 2×10^5 NAMALWA cells in matrigel were implanted into NOD SCID mice and treatment initiated when the main tumor size reached approximately 189 mm^3. Daratumumab was administered at 10 mg/kg once a week for three weeks. CHOP was administered daily on days 0-5 using following doses: cyclophosphoamide (CTX): 5 mg/kg i.v.; doxorubicin: 0.5 mg/kg i.v; vincristine: 0.08 mg/kg i.v., prednisone: 0.03 mg/kg p.o. Tumor volume was measured every three days. The Y-axis represents tumor volume±SEM
As a model for Burkitt's lymphoma, NAMALWA cells were utilized to study the efficacy of daratumumab alone or in combination with CHOP.
Namalwa cells were maintained in vitro in RPMI 1640 medium supplemented with fetal bovine serum (10% v/v), and L-glutamine (2 mM) at 37° C. in an atmosphere of 5% CO2 in air. The cells were routinely subcultured twice weekly by trypsin-EDTA treatment. The cells growing in an exponential growth phase were harvested and counted for tumor inoculation. The mice were injected with 2×10^5 Namalwa cells in 0.1 ml of PBS with matrigel (1:1) subcutaneously and the treatments were started when the mean tumor size reached 189 mm^3. The date of tumor cell inoculation is denoted as day 0. The major endpoint was to see if the tumor growth can be delayed or tumor-bearing mice can be cured. Tumor sizes were measured twice weekly and % TGI values calculated as described in Example 1.
Animals were divided in four treatment groups and were administered vehicle (isotype control), daratumumab, CHOP or daratumumab in combination with CHOP at dosages as described in Table 2.

For the substance “Daratumumab: anti-CD38 antibody, IgG1/κ; VH SEQ ID NO: 4, VL SEQ ID NO: 5; heavy chain SEQ ID NO: 12, light chain SEQ ID NO: 13”, the “Mean tumor volume (mm^3) ± SEM” value in test [1] (day 31, daratumumab 20 mg/kg once a week for 3 weeks, CHOP/R-CHOP once on day 0, prednisone days 0-4, day 0 volume 145-146 mm^3) is on record as 744 ± 236 mm^3. For the same substance, the “% TGI (percent tumor growth inhibition)” value in test [1] was 71%; in test [1] (listed as daratumumab), approximately 71%. The Tumor growth delay with SU-DHL-6 cells (at tumor size of 1,500 mm^3) is 3 days; in the test on NAMALWA cells (at tumor size of 2,303 mm^3) it was 2 days. For the same substance, the T/C value worked out at 45.45% with SU-DHL-6 cells (day 32 post tumor inoculation) and 70.46% with NAMALWA cells (day 26 post tumor inoculation). Also, the “Antitumor activity in tumor size” value with SU-DHL-6 cells (day 32 post tumor inoculation, versus vehicle) is “significant antitumor activity”; with NAMALWA cells (day 26 post tumor inoculation, versus vehicle), “significant antitumor activity”. Further, the Mean tumor size in the test on SU-DHL-6 cells (day 32 post tumor inoculation, daratumumab 10 mg/kg QW x 4, CHOP QD x 5) is given as 1,946 mm^3; in the test with NAMALWA cells (day 26 post tumor inoculation, daratumumab 10 mg/kg QW x 3, CHOP QD x 5), 3,017 mm^3.
